This is an account of results in patent publication US5476944A, “Derivatives of cyclic phenolic thioethers” (G. D. Searle & Co., priority 1994, dated 1995).

The test concerns the target T1, cellular COX-II (Homo sapiens, UniProt P35354).
T1 construct: stimulated human fetal dermal fibroblasts (HFDF, derived from primary cell cultures); endogenous in cells; host or cells: human fetal dermal fibroblasts (HFDF), primary, stimulated with IL-1 beta
T1 sequence (P35354 18-604): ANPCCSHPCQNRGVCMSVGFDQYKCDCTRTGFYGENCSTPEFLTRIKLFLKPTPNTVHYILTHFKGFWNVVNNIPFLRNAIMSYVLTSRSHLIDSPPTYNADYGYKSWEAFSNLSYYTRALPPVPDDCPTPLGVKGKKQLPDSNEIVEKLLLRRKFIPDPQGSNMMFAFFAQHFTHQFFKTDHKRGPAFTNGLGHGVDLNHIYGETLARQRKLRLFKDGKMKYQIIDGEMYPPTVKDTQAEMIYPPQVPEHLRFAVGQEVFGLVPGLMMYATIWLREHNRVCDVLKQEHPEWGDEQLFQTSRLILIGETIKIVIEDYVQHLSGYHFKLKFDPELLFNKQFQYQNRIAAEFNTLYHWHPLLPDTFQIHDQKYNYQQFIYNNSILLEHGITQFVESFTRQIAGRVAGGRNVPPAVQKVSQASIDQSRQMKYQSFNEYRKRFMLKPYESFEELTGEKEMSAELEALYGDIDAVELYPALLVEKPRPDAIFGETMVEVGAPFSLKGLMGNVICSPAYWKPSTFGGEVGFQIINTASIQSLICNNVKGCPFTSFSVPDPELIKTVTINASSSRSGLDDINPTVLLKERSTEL
Put plainly: Cellular COX-II Assay (Cell Fibroblast Assay), IL-1 stimulated human fetal dermal fibroblasts, PGE2. The test is classed as cell-based. As to conditions: IL-1 beta stimulated human fetal dermal fibroblasts. On the procedure:
The compounds of the invention are evaluated with respect to the inhibition of cellular COX-II in vitro according to the following Cellular COX-II Assay (Cell Fibroblast Assay).
Cellular COX-II Assay (Cell Fibroblast Assay)
Inhibition of cellular COX-II by test compounds is determined using stimulated human fetal dermal fibroblasts (HFDF, derived from primary cell cultures). Fibroblasts are cultured in microtiter wells at 1.5×10^4 cells/well in Dulbecco's Modified Eagle's Media (DMEM)(Gibco/BRL, Gaithersburg, Md. Sigma Chemical Co., St. Louis, Mo.) containing 4500 mg glucose/L, 100 units penicillin G/ml and 0.1 mg streptomycin/ml, 4 mM L-glutamine, 25 mM Hepes and 10% Fetal Bovine Serum (Gibco/BRL, Gaithersburg, Md. Bioproducts For Science, Inc., Indianapolis,Ind.). Following a 3-day incubation at 37° C., the culture media is removed by aspiration using low vacuum, and the cells are stimulated overnight with medium containing human recombinant IL-1 (interleukin-1) beta (1 ng/ml)(Cistron, Pine Brook, N.J.). The next day, the fibroblasts are washed with Phosphate Buffered Saline, and 185 μl of DMEM is added to each well. The cells are placed in a 37° C. incubator for 15 minutes. Compounds are then added to the cells using seven half-log dilutions in duplicate determinations. Cells are incubated with test compounds at 37° C. for 30 minutes. The COX-II substrate arachidonic acid (20 μM; Nu-Chek-Prep Inc., Elysian, Minn.) is then added to the cell cultures and the plates are incubated for 10 minutes at 37° C. Supernatants are collected and Prostaglandin E2 (PGE2) production is measured by an enzyme-linked immunosorbent assay (ELISA; antibodies produced by Cayman Chemical Company, Ann Arbor, Mich.). […] PG,60
The following is a description of how the activities of the compounds of the present invention may be determined.
A run of this assay consists of one (or more) plates, each containing, along with the standard (in row A), (1) two wells of unstimulated material (in col. 12), (2) five wells of stimulated material (in col. 12), (3) seven wells (one per concentration) for indomethacin (in col. 11), and (4) two wells at each of seven concentrations for five test compounds, one of which is a repeat of indomethacin. The response (ng/ml Eicosanoid) is estimated from the Standard curve and is highest at low concentrations and decreases as the concentration increases. If the response is plotted on the y-axis and the log of the concentration is plotted on the x-axis, the dose-response pattern for these assays is typically a symmetrical, sigmoidal shaped curve. If a full range of concentrations is used, the complete sigmoidal curve may be seen, starting with an upper asymptote, falling at some degree of steepness, and then leveling off at a lower asymptote. The IC50 is defined as the concentration corresponding to a response midway between the upper and lower plateaus. A theoretic "dose-response" model is used to estimate the IC50.
The procedure described below was used to define the minimum and maximum responses for the compounds on a plate.
The procedure uses information for indomethacin and the rest of the plate in defining the minimum and maximum response. The justification for doing this is as follows. Enough runs have been done with indomethacin to determine and use a range of concentrations such that the response to the lowest concentrations is on the upper plateau of the sigmoidal curve and the response to the highest concentrations is on the lower plateau of the sigmoidal curve. For the other compounds, if a response is measured which is less than the response for the unstimulated wells, then this response may be considered to be another estimate of a minimal response. Likewise, if a response is measured which is greater than the response for the stimulated wells, then this response may be considered to be another estimate of a maximal response. Based on this reasoning, the minimum is estimated as follows: […]

SMILES strings stand for the structures.

In turn, `CC(C)(C)c1cc(S[C@H]2CCCC[C@H]2OCC(=O)O)cc(C(C)(C)C)c1` (racemic) [Example 72, (±)cis-2-[[2-[[3,5-bis(1,1-dimethylethyl)phenyl]thio]cyclohexyl]oxy]acetic acid] registered an IC50 of 370 nM.
